Results taken from paper PMC9725750, “The clinical pharmacology of tafenoquine in the radical cure of Plasmodium vivax malaria: An individual patient data meta-analysis” (eLife, 2022).

Experiments:
blood MetHb = test: Blood methaemoglobin (MetHb) concentration on day 7 by pulse CO-oximeter; type: in vivo, human
Text: All patients in the phase 1 trial and the three efficacy trials had frequent blood MetHb measurements taken using non-invasive signal extraction pulse CO-oximeter handheld machines. For the three efficacy trials, we excluded measurements taken at or after recurrence of vivax malaria. Because erroneous readings from the handheld oximeters can occur, we inspected visually the longitudinal MetHb curves for each patient. […] All patients from this site were excluded from the MetHb analysis ( n =91), resulting in a total of 9632 MetHb measurements across 746 P. vivax infected patients and 72 healthy volunteers.

[1] = Tolerability and safety: acute vomiting, severe haemolysis, haemoglobin change; type: in vivo, human; conditions: for Hb change to day 2/3 / Hb change to day 7±1: mean (sd)
Experimental: For tolerability, acute vomiting was defined as vomiting within 1 hr of tafenoquine dosing, and for safety, three definitions of severe haemolysis were assessed:
• Relative fall in haemoglobin by more than 25% to <7 g/dL • Absolute fall in haemoglobin greater than 5 g/dL • Any haemoglobin fall to <5 g/dL
Tolerability and safety events were categorised according to tafenoquine treatment and doses (no tafenoquine, <3.75 mg/kg tafenoquine, [3.75,6.25) mg/kg tafenoquine, [6.25,8.75) mg/kg tafenoquine, ≥8.75 mg/kg tafenoquine). The change in haemoglobin concentration from day 0 to the minimum on day 2 or 3, the expected day of nadir ([Commons et al., 2019]), was calculated to assess changes in haemoglobin associated with tafenoquine dose. Mixed effects models were used to explore the association between tafenoquine mg/kg dose, day 7 MetHb concentration, AUC[0,∞) , Cmax, and t1/2 adjusting for age, sex, day 0 parasite density and day 0 haemoglobin, with random effects for study and site.

[2] = set-up: method as in Shanks et al., 2001; conditions: ref Shanks et al., 2001, cited from earlier work
[3] = cited from earlier work
CYP2D6 = CYP2D6 activity score (poor vs normal/extensive metabolisers): association with recurrence and half-life; type: in vivo, human
Text: CYP2D6 genotyping data were available for patients enrolled in DETECTIVE part 2 and GATHER. We mapped CYP2D6 diplotypes to an activity score using the standard scoring system ([Caudle et al., 2020]) (note that under the updated scoring system the *10 allele has a score of 0.25 instead of 0.5). The activity score cannot be used as a linear predictor (e.g. a score of 1 cannot be interpreted as twice the metabolic activity of a score of 0.5). For this reason, to assess association with recurrence, we dichotomised the activity scores into poor metabolisers (≤0.5) versus normal/extensive metabolisers (>0.5) ([Caudle et al., 2020]).

[4] = all tafenoquine-treated patients

Structure (SMILES): COc1cc(C)c2c(Oc3cccc(C(F)(F)F)c3)c(OC)cc(NC(C)CCCN)c2n1 (centres unmarked) [tafenoquine]
- increase in day 7 MetHb concentrations per additional mg/kg (blood MetHb; 95% CI 17% to 21%): 19%
- lower day 7 methaemoglobinaemia in healthy volunteers compared to patients infected with P. vivax (blood MetHb; adjusted for mg/kg dose, 95% CI 0 to 34%, p=0.02): 15%
- day of peak MetHb levels (blood MetHb; after single dose tafenoquine + chloroquine): ~7 days
- additional mean haemoglobin reduction at day 2 or 3 ([1]; 300 mg dose in a 60 kg adult): around 0.1 g/dL
- additional mean reduction in Hb at day 2 or 3, relative ([1]; 300 mg dose in a 60 kg adult): < 1%
- patients who vomited within 1 hour of oral administration ([1]; 15/651 patients): 2.3%
- haemoglobin increase per one day increase in terminal elimination half-life ([1]; 95% CI 0.01 to 0.04): 0.02 g/dL
- OR for vomiting per mg/kg increase ([1]; 95% CI 0.88–1.32): 1.08
- change in haemoglobin concentration per one percent increase in day 7 MetHb ([1]; Hb on day 2 or 3, 95% CI –0.12 to –0.03): –0.08 g/dL
- Absolute Hb fall >5 g/dL ([1]; TQ 3.75-<6.25mg/kg, n=378): 1 (0.3%) n (%)
- Hb fall >25% to<7 g/dL ([1]; TQ 3.75-<6.25mg/kg, n=378): 0 (0%) n (%)
- Hb fall to <5 g/dL ([1]; TQ 3.75-<6.25mg/kg, n=378): 0 (0%) n (%)
- Absolute Hb fall >5 g/dL ([1]; TQ 6.25-<8.75mg/kg, n=56): 0 (0%) n (%)
- Hb fall >25% to<7 g/dL ([1]; TQ 6.25-<8.75mg/kg, n=56): 0 (0%) n (%)
- Hb fall to <5 g/dL ([1]; TQ 6.25-<8.75mg/kg, n=56): 0 (0%) n (%)
- Absolute Hb fall >5 g/dL ([1]; TQ <3.75mg/kg, n=171): 0 (0%) n (%)
- Hb fall >25% to<7 g/dL ([1]; TQ <3.75mg/kg, n=171): 0 (0%) n (%)
- Hb fall to <5 g/dL ([1]; TQ <3.75mg/kg, n=171): 0 (0%) n (%)
- Absolute Hb fall >5 g/dL ([1]; TQ > 8.75mg/kg, n=44): 0 (0%) n (%)
- Hb fall >25% to<7 g/dL ([1]; TQ > 8.75mg/kg, n=44): 0 (0%) n (%)
- Hb fall to <5 g/dL ([1]; TQ > 8.75mg/kg, n=44): 0 (0%) n (%)
- patients with a fall in Hb to less than 5 g/dL [1, 4]: no patients
- patients with greater than 5 g/dL fall in Hb [1, 4]: One patient
- patients with greater than 25% fall in Hb to <7 g/dL [1, 4]: no patients
- mean haemoglobin reduction at day 2 or 3 ([1]; dose increased to 450 mg): 0.15 g/dL
- Hb change to day 2/3 ([1]; TQ 3.75-<6.25mg/kg, n=378): –0.7 (0.9)
- Hb change to day 7±1 ([1]; TQ 3.75-<6.25mg/kg, n=378): –0.4 (1.1)
- Hb change to day 2/3 ([1]; TQ 6.25-<8.75mg/kg, n=56): –0.8 (0.8)
- Hb change to day 7±1 ([1]; TQ 6.25-<8.75mg/kg, n=56): –0.4 (1.0)
- Hb change to day 2/3 ([1]; TQ <3.75mg/kg, n=171): –0.6 (0.9)
- Hb change to day 7±1 ([1]; TQ <3.75mg/kg, n=171): –0.3 (0.9)
- Hb change to day 2/3 ([1]; TQ > 8.75mg/kg, n=44): –0.6 (1.1)
- Hb change to day 7±1 ([1]; TQ > 8.75mg/kg, n=44): –0.3 (1.3)
- haemoglobin change at day 2 or 3 per additional mg/kg of tafenoquine ([1]; mixed effects linear regression, 95% CI –0.04 to 0.00, P=0.02): –0.02 g/dL
- haemolytic outcome ([2]; female heterozygous for G6PD deficiency (A- variant), total dose 1200 mg over 3 days): severe haemolytic reaction
- drop in haemoglobin ([2]; homozygous G6PD deficient female (A- variant), 1200 mg over 3 days, remained asymptomatic): ~3 g/dL
- route of elimination ([3]; ref Brueckner et al., 1998): eliminated via biliary excretion with enterohepatic recirculation, but is not eliminated in the urine
- persistence of plasma concentrations above a plausible minimum inhibitory concentration for the asexual activity ([3]; ref Dow and Smith, 2017): up to three months
- terminal elimination half-life ([3]; ref Thakkar et al., 2018): about 15 days
- OR for recurrence at 4 months, poor versus normal/extensive metabolisers (CYP2D6; CYP2D6 activity score ≤0.5 vs >0.5, 95% CI 0.4 to 2.2): 0.9
- change in tafenoquine elimination half-life in poor versus normal/extensive metabolisers (CYP2D6; activity score ≤0.5, n=35 vs n=356, 95% CI –1.22 to 0.94): –0.15 days
